# Reference: patent publication US12285012B2, “Compositions comprising pyridine carboxylate herbicides with acetolactate synthase (ALS) inhibitor herbicides” (Corteva Agriscience LLC, priority 2018, dated 2025)
# Like-named read-outs stand apart in the source and are kept apart here.
# Experiments:
# [1] = tested on: wild oat (AVEFA, Avena fatua); experiment: Greenhouse postemergence herbicidal effect; type: in vivo; details: 20 g/ha
# Text: (§1) Seeds of the desired test plant species were planted in a 90:10% v/v (volume/volume) mixture of PRO-MIX® BX (Premier Tech Horticulture, Quakertown, PA, USA) and PROFILE® GREENS GRADE™ (Profile Products LLC, Buffalo Grove, IL, USA) planting mixture, which typically has a pH of 5.2 to 6.2 and an organic matter content of at least 50 percent, in plastic pots with a surface area of 103.2 square centimeters (cm^2). In some aspects, to ensure good germination and healthy plants, a fungicide treatment and/or other chemical or physical treatment was applied. The plants were grown for 7-36 days (d) in a greenhouse with an approximate 14-hour (h) photo-period which was maintained at about 23° C. during the day and 22° C. during the night. Nutrients and water were added on a regular basis and supplemental lighting was provided with overhead metal halide 1000-Watt lamps as necessary. The plants were employed for testing when they reached the second or third true leaf stage.
# (§2) Emulsifiable concentrates of each of each pyridine carboxylate herbicide (Compound A or Compound B) were prepared at 100 grams acid equivalent per liter (g ae/L). The emulsifiable concentrates also included a safener, cloquintocet-mexyl, at 120 grams active ingredient per liter (g ai/L), unless otherwise noted below. An aliquot of each emulsifiable concentrate was placed in a 25 mL glass vial and diluted with an aqueous mixture of 1.25% (v/v) ACTIROB® B esterified rapeseed oil (Bayer Crop Science, Research Triangle Park, NC, USA) or MSO® Concentrate with LECI-TECH® methylated soybean oil (Loveland Products, Loveland, CO, USA) to obtain concentrated stock solutions at the highest application rate for each herbicide, based upon a 12 milliliter (mL) application volume at a rate of 187 liters per hectare (L/ha). The concentrated stock solutions were further diluted with an aqueous mixture of 1.25% v/v ACTIROB® B or MSO® Concentrate with LECI-TECH® to obtain stock solutions at reduced application rates for each herbicide. Spray solutions of the herbicide combinations (Compound A or Compound B plus ALS herbicide) were prepared by adding weighed amounts or aliquots of the ALS herbicides to the stock solutions of Compound A or Compound B to form 12-mL spray solutions in two- or three-way combinations.
# (§3) The spray solutions were applied to the plant material with an overhead Mandel track sprayer equipped with 8002E nozzles calibrated to deliver 187 L/ha over an application area of 0.503 square meters (m^2) at a spray height of 18 inches (43 centimeters (cm)) above the average plant canopy. Control plants were sprayed in the same manner with the solvent blank. All pyridine carboxylate herbicide (component a) application rates are given as “g ae/ha” and all ALS inhibitor (component b) application rates are given as “g ai/ha.”
# (§4) The treated plants and control plants were placed in a greenhouse as described above and watered by sub-irrigation to prevent wash-off of the test compounds. After 20-22 d, the condition of the test plants as compared with that of the control plants was determined visually and scored on a scale of 0 to 100 percent where 0 corresponds to no injury and 100 corresponds to complete kill.
# [2] = tested on: giant foxtail (SETFA, Setaria faberi); experiment: Greenhouse postemergence herbicidal effect; type: in vivo; details: 20 g/ha
# Text: as §1, §2, §3, §4
# [3] = tested on: large crabgrass (DIGSA, Digitaria sanguinalis); experiment: Greenhouse postemergence herbicidal effect; type: in vivo; details: 20 g/ha
# Text: as §1, §2, §3, §4
# [4] = tested on: annual ryegrass (LOLMG=Lolium multiflorum subsp. gaudini); experiment: Greenhouse postemergence herbicidal effect; type: in vivo; details: 20 g/ha
# Text: as §1, §2, §3, §4
# [5] = tested on: nutsedge (CYPES, Cyperus esculentus); experiment: Greenhouse postemergence herbicidal effect; type: in vivo
# Text: as §1, §2, §3, §4
# [6] = tested on: spring wheat (TRZAS); type: in vivo, Triticum aestivum
# Summary of the method: (§5)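 Plants grown in a greenhouse (~14 h photoperiod, about 23 °C day/22 °C night) were sprayed postemergence at the second or third true leaf stage. Formulations contained cloquintocet-mexyl safener; pyridine carboxylate rates are in g ae/ha, ALS inhibitor rates in g ai/ha. Injury versus solvent-blank controls was scored visually (0–100%) after 20–22 d.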
# [7] = tested on: spring rape (BRSNN, Brassica napus); experiment: Greenhouse postemergence herbicidal effect; type: in vivo
# Summary of the method: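 Injury was rated visually after 20-22 d on a 0 (none) to 100% (complete kill) scale relative to solvent-sprayed controls, with sub-irrigation to avoid wash-off. Rates were given in g ae/ha or g ai/ha depending on component.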
# [8] = tested on: Canadian thistle (CIRAR, Cirsium arvense); experiment: Greenhouse postemergence herbicidal effect; type: in vivo
# Summary of the method: as §5
# [9] = tested on: poinsettia (EPHHL, Euphorbia heterophylla); experiment: Greenhouse postemergence herbicidal effect; type: in vivo
# Text: as §1, §2, §3, §4
# [10] = tested on: common sunflower (HELAN, Helianthus annuus); experiment: Greenhouse postemergence herbicidal effect; type: in vivo
# Text: as §1, §2, §3, §4
# [11] = tested on: ivyleaf morningglory (IPOHE, Ipomoea hederacea); experiment: Greenhouse postemergence herbicidal effect; type: in vivo
# Text: as §1, §2, §3, §4
# [12] = tested on: grain sorghum (SORVU, Sorghum vulgare); experiment: Greenhouse postemergence herbicidal effect; type: in vivo
# Text: as §1, §2, §3, §4
structure (smiles),measurement,setting,value
"COc1cc(OC)nc(NC(=O)NS(=O)(=O)c2ncccc2C(=O)N(C)C)n1 [Nicosulfuron, nicosulfuron]","% visual injury, Obs",[1],96%
same,"% visual injury, Obs",[2],100%
same,"% visual injury, Obs",[3],65%
same,"% visual injury, Obs",[4],96%
same,"% visual injury, Obs",[5]; 20 g/ha,40%
"COc1cc(OC)nc(Oc2cccc(Oc3nc(OC)cc(OC)n3)c2C(=O)O)n1 [Bispyribac, bispyribac]",% visual injury,[6]; Bispyribac 90 g/ha,18%
same,% visual injury,[7]; Bispyribac 90 g/ha,88%
same,% visual injury,[8]; Bispyribac 90 g/ha,90%
same,% visual injury,[9]; Bispyribac 90 g/ha,95%
same,% visual injury,[10]; Bispyribac 90 g/ha,97%
same,% visual injury,[11]; Bispyribac 90 g/ha,70%
same,% visual injury,[12]; Bispyribac 90 g/ha,73%
same,% visual injury,[5]; Bispyribac 90 g/ha,20%
"COc1cc(OC)nc(Oc2cccc(Oc3nc(OC)cc(OC)n3)c2C(=O)ON=C(c2ccccc2)c2ccccc2)n1 [Pyribenzoxim, pyribenzoxim]",% visual injury,[6]; Pyribenzoxim 10 g/ha,13%
same,% visual injury,[7]; Pyribenzoxim 10 g/ha,90%
same,% visual injury,[8]; Pyribenzoxim 10 g/ha,90%
same,% visual injury,[9]; Pyribenzoxim 10 g/ha,100%
same,% visual injury,[10]; Pyribenzoxim 10 g/ha,98%
same,% visual injury,[11]; Pyribenzoxim 10 g/ha,78%
same,% visual injury,[12]; Pyribenzoxim 10 g/ha,73%
same,% visual injury,[5]; Pyribenzoxim 10 g/ha,0%
